Data on four compounds can be found in patent US20210330756A1, “Acetylation of Miro1” (University of South Carolina, priority 2020, published 2021).

The test system of assay [1] is axonal mitochondrial transport in DRG neurons. The assay is described as follows: FRAP of Mito-GFP in distal axons of DRG neurons. The class given is cell-based, rat. The following applies: for effect on MAG-Fc-dependent decrease in Mito-GFP recovery / mitochondrial transport: pretreatment: TubA 10 μM, Y27632 10 μM or BAPTA-AM 3 μM. How it is done: MAG or Aggrecan exposures were performed as bath application or on coated substrates. For bath application, dissociated DRGs were cultured for 48 h and treated with 25 μg/ml of MAG-Fc (R&D Systems; 538-MG), 25 μg/ml Fc control (R&D Systems; 110-HG), or 10 μg/ml of Aggrecan (Sigma-Aldrich; A1960) for 4 h. Cultures were pretreated with either Ca^2+ chelator BAPTA-AM (3 μM; Sigma-Aldrich; A1076), ROCK inhibitor Y27632 (10 μM; Sigma-Aldrich; SCM075), HDAC6 inhibitor TubA (10 μM; R&D Systems; 6270), Thapsigargin (1 μM; Sigma-Aldrich; T9033), Rho Activator II (1 μg/ml; Cytoskeleton; CNO3), or equivalent volume DMSO 30 min before MAG-Fc, Aggrecan, or controls. For substrate-bound experiments, adult DRGs were cultured on glass bottom dishes (Greiner) that were coated with 25 μg/ml Aggrecan in addition to the laminin/poly-D-lysine substrate.
Mito-KR- and Mito-GFP-expressing DRG neurons were used for FRAP analyses at 48-72 h after transfection. To evaluate mitochondrial motility in Mito-KR-expressing neurons, Mito-KR signals were photobleached using continual exposure to an argon laser set at 594 nm for 30 s (100% laser power) The bleached ROI was then monitored for recovery using an argon laser set at 580 nm every 10 s over 16 min (13% laser power). For FRAP analyses with Mito-GFP, GFP signals were photobleached in a 50 μm ROI using an argon laser set at 488 nm every 10 s for 16 min (70% laser power). The same excitation was used for post-bleach imaging to assess recovery every 10 s for 16 min. For axon shaft FRAP experiments in Mito-GFP-expressing neurons, ROIs of ˜50 μm in length (without branches) were imaged >100 μm proximal to the growth cone. Prebleach, bleach, and post-bleach sequences were the same as for Mito-GFP above. In all cases, neurons were imaged over 40 s or more to acquire baseline Mito-KR or Mito-GFP signals before photobleaching using an argon laser (580 nm at 13% power for Mito-KR and 488 nm at 31% power for Mito-GFP).
Vesicle trafficking was quantified using differential ImageJ Difference Tracker Plug-in (Andrews et al., 2010). 50-80-μm long unbranched axon segments at approximately the mid-region between growth cone and cell body were analyzed. Kymographs were generated using ImageJ Kymograph Plug-in. For analyses of axon retraction in the CALI experiment, the distance from the distal tip of the growth cone in the pre-CALI image sequence was used as the baseline (t=1 min). The distance between the growth tip at end of the post-CALI sequence and the pre-CALI baseline was measured using LAS-X software. Movement of ≥0.5 μm toward the axon shaft was counted as retracted. Fluorescence emission of the Mito-KR post-CALI was analyzed using ImageJ. For normalizing intensities across FRAP image sets, fluorescence intensity at each time point was scaled using the LAS-X FRAP module so that the residual fluorescence signal at t=0 min (post-bleach) was set at 0 and the prebleach intensity was set at 100% for each bleached ROI. For axon shaft FRAP analyses, each 50-μm bleached ROI was divided into […], and the fluorescence intensity recovery was measured as described above. EMs at 1,900× and 4,800× magnification across the crosssectional surface of each sciatic nerve were used for in vivo analyses of mitochondrial content. A minimum of 75 unmyelinated axons was analyzed for each nerve. All unmyelinated axons from each analyzed image were included for quantitative studies. The total number of mitochondria was determined in each unmyelinated axon in the field and was divided by the total number of unmyelinated axons for all subjects. […] was determined by changes in JC-1 fluorescence. JC-1 exists either as a green fluorescent monomer at depolarized membrane potentials or as an orange-red fluorescent aggregate at hyperpolarized membrane potentials. […]

A further assay relates to Ac-histone H4. In words: Immunoblotting for Ac-histone H4 in adult DRG neurons (HDAC specificity). The class given is cell-based, rat. How it is done: We tested for this specificity in the adult DRG neurons from above by immunoblotting. […] (A) Number of mitochondria in growth cones after exposing DRG cultures to 10 μM TubA versus vehicle (control) for 1 h is shown as average fold-change in number of mitochondria per growth cone±SEM (n=13 axons across three culture preparations; *, P≤0.05 by one-way ANOVA with Bonferroni post hoc analysis). (B) Representative EMs of Remak bundles (arrowheads) in naive Sciatic nerve and nerves after 2 h vehicle (DMSO) or TubA injection are shown. Arrows indicate mitochondria in the unmyelinated axons. Note that a Schwann cell nucleus (asterisk) is seen in the Remak bundle for DMSO image but not the other two micrographs (scale bar=3 μm). (C) Quantification of number of mitochondria per unmyelinated axon from EM images as in B is shown as average±SEM (n≥5; *****, P≤0.0001 by one-way ANOVA with Bonferroni post hoc analysis). (D-F) Quantification for indicated parameters for mitochondrial transport in sciatic nerve in vivo using tetramethylrhodamine, ethyl ester, perchlorate to visualize mitochondria is shown.
For immunoblotting, protein lysates or immunoprecipitates were denatured by boiling in Laemmli sample buffer, fractionated by SDS-PAGE, and transferred to nitrocellulose membranes. Blots were blocked for 1 h at room temperature with 5% nonfat dry milk in TBS with 0.1% Tween 20 (TBST). Primary antibodies diluted in 5% BSA in TBST were added to the membranes and incubated overnight at 4° C. with rocking. Primary antibodies consisted of rabbit anti-Myc (1:2,000; Cell Signaling; 71D10), rabbit anti-RHOT1 antibody (1:1,000; Aviva Systems Biology; ARP44817 P050), rabbit anti-HDAC6 antibody (1:2,000; Cell Signaling; 7558), rabbit anti-ERK1 (1:5,000; Abcam; ab32537), and affinity-purified custom rabbit anti-Miro1-AcK105 (1:2,500; Twiss laboratory, see above) antibodies. For the anti-Miro1-AcK105 antibody, preimmune and test-bleed sera were used at 1:1,000 dilutions to initially evaluate for specificity. After washing in TBST, blots were incubated with HRP-conjugated anti-rabbit IgG antibodies (1:5,000; Jackson Immunoresearch) diluted in blocking buffer for 1 h at room temperature. Signals were detected using ECL Prime (GE Healthcare) after extensive washing.

As to `CC(=O)OCOC(=O)CN(CC(=O)OCOC(C)=O)c1ccccc1OCCOc1ccccc1N(CC(=O)OCOC(C)=O)CC(=O)OCOC(C)=O` [BAPTA-AM], in assay [1] (3 μM), the “basal Mito-GFP FRAP recovery after the first 5 min” value is on record as “no different than recovery in untreated cultures” and the “basal Mito-GFP FRAP recovery in distal axons, first 5 min after bleach” value was “increased recovery”. Also, the “effect on decrease in axonal mitochondrial transport seen upon direct activation of RhoA” value in assay [1] (3 μM BAPTA-AM + 1 μg/ml Rho activator, 960 s after bleach) is on record as “completely abrogated the decrease in axonal mitochondrial transport”. Moreover, in assay [1] (MAG-Fc, Mito-GFP FRAP), the “additive or synergistic effect when combined with 10 μM TubA” value was “No significant additive effects”. The “effect on MAG-Fc-dependent decrease in Mito-GFP recovery / mitochondrial transport” value in assay [1] (960 s after bleach) is “prevented the MAG-Fc attenuation of axonal mitochondrial transport”.
Regarding `O=C(CCCN1C(=O)c2cccc3cccc(c23)C1=O)NO` [Nullscript], the “Ac-histone H4 levels” value in the assay on Ac-histone H4 (6.3 μM) is given as “no change in Ac-histone H4 levels”.
As to `O=C(CCCCCN1C(=O)c2cccc3cccc(c23)C1=O)NO` [Scriptaid], in the assay on Ac-histone H4 (Scriptaid, concentration not given), the “Ac-histone H4 levels” value was “clear increase in Ac-histone H4 levels”.
Consider `C[C@@H](N)[C@H]1CC[C@H](C(=O)Nc2ccncc2)CC1` [Y27632], for which, in assay [1] (MAG-Fc, Mito-GFP FRAP), the “additive or synergistic effect when combined with 3 μM BAPTA-AM” value was “no additive or synergistic effect” and the “additive or synergistic effect when combined with 10 μM TubA” value is listed as “no additive or synergistic effect”. Besides, the “additive effect when combined with 10 μM TubA” value in assay [1] (aggrecan 10 μg/ml, Mito-GFP FRAP) is recorded as “no significant additive effects”. Further, the “effect on aggrecan-dependent decrease in Mito-GFP recovery” value in assay [1] (aggrecan 10 μg/ml, TubA 10 μM or Y27632 10 μM) is “prevented the aggrecan dependent decrease in Mito-GFP recovery”. The “effect on MAG-Fc-dependent decrease in Mito-GFP recovery / mitochondrial transport” value in assay [1] (960 s after bleach) is on record as “similarly blocked the decline in mitochondrial transport”. Besides, the “effect on MAG-Fc-dependent decrease in Mito-GFP recovery / mitochondrial transport” value in assay [1] (960 s after bleach, listed as ROCK inhibitor) was “similarly prevented the MAG-dependent decrease in mitochondrial transport”.
